# Columns and labels:
# Dihydrofolate reductase [1] = target: T1, Dihydrofolate reductase (Pneumocystis carinii, UniProt P16184)
# T1 sequence (P16184 whole entry): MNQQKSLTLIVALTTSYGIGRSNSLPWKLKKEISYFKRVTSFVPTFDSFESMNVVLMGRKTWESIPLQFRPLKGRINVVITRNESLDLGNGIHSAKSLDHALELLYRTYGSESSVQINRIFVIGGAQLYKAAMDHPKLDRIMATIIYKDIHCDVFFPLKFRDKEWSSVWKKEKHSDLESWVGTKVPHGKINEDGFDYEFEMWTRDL
# Description: The ability to inhibit Pneumocystis carinii Dihydrofolate reductase was tested
# [2] = target: T2, Bifunctional dihydrofolate reductase-thymidylate synthase (Toxoplasma gondii, UniProt Q07422)
# T2 sequence (Q07422 whole entry): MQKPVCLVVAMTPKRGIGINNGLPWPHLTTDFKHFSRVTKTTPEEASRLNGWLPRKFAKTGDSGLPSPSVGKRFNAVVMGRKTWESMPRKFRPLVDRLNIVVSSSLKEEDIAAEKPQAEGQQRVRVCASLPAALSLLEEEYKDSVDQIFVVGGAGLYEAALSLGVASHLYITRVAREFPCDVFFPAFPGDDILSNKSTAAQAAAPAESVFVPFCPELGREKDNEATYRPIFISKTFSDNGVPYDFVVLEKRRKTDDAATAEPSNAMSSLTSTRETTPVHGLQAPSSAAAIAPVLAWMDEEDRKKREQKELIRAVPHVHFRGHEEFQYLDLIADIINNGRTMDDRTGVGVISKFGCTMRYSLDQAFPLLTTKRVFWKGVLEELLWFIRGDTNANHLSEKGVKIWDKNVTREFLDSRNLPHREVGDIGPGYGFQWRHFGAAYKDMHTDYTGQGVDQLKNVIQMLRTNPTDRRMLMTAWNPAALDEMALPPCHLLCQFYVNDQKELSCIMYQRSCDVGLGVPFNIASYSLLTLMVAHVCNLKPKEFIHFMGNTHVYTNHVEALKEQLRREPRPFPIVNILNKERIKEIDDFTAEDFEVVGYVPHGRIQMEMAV
# Description: The ability to inhibit Toxoplasma gondii Dihydrofolate reductase was tested
# Dihydrofolate reductase [3] = target: T3, Dihydrofolate reductase (Rattus norvegicus, UniProt Q920D2)
# T3 sequence (Q920D2 whole entry): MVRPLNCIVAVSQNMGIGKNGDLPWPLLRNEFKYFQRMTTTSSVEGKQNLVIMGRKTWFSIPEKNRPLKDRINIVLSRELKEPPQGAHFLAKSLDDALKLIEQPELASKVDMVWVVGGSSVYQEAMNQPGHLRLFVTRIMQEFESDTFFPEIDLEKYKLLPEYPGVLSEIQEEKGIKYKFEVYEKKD
# Description: The ability to inhibit rat liver Dihydrofolate reductase was tested
# 786-0 = test: Compound was tested for the growth inhibition of 786-0 renal tumor cell line; assay type: functional, cell-based; settings: Homo sapiens
# A498 = test: Compound was tested for the growth inhibition of A498 renal tumor cell line; assay type: functional, cell-based; settings: Homo sapiens
# A549 = test: Compound was tested for the growth inhibition of A549 lung tumor cell line; assay type: functional, cell-based; settings: Homo sapiens
# BT-549 = test: Compound was tested for the growth inhibition of BT-549 breast carcinoma cell line; assay type: functional, cell-based; settings: Homo sapiens
# COLO 205 = test: Compound was tested for the growth inhibition of COLO 205 colon tumor cell line; assay type: functional, cell-based; settings: Homo sapiens
# EKVX = test: Compound was tested for the growth inhibition of EKVX lung tumor cell line; assay type: functional, cell-based; settings: Homo sapiens
# HCT-116 = test: Compound was tested for the growth inhibition of HCT116 colon tumor cell line; assay type: functional, cell-based; settings: Homo sapiens
# KM12 = test: Compound was tested for the growth inhibition of KM12 colon tumor cell line; assay type: functional, cell-based; settings: Homo sapiens
# NCI-H460 = test: Compound was tested for the growth inhibition of NCI-H460 lung tumor cell line; assay type: functional, cell-based; settings: Homo sapiens
# NCI-H226 = test: Compound was tested for the growth inhibition of NCI-H226 lung tumor cell line; assay type: functional, cell-based; settings: Homo sapiens
# OVCAR-3 = test: Compound was tested for the growth inhibition of OVCAR-3 ovarian tumor cell line; assay type: functional, cell-based; settings: Homo sapiens
# OVCAR-8 = test: Compound was tested for the growth inhibition of OVCAR-8 ovarian tumor cell line; assay type: functional, cell-based; settings: Homo sapiens
# PC-3 = test: Compound was tested for the growth inhibition of PC3 prostate tumor cell line; assay type: functional, cell-based; settings: Homo sapiens
# SW-620 = test: Compound was tested for the growth inhibition of SW-620 colon tumor cell line; assay type: functional, cell-based; settings: Homo sapiens
# SN12C = test: Compound was tested for the growth inhibition of SN12C renal tumor cell line; assay type: functional, cell-based; settings: Homo sapiens
# SF-539 = test: Compound was tested for the growth inhibition of SF-539 CNS tumor cell line; assay type: functional, cell-based; settings: Homo sapiens
# T47D = test: Compound was tested for the growth inhibition of T-47D breast tumor cell line; assay type: functional, cell-based; settings: Homo sapiens
# UACC-257 = test: Compound was tested for the growth inhibition of UACC-257 melanoma tumor cell line; assay type: functional, cell-based; settings: Homo sapiens
# MDA-N = test: Compound was tested for the growth inhibition of MDA-N breast carcinoma cell line; assay type: functional, cell-based; settings: Homo sapiens
# LOX IMVI = test: Compound was tested for the growth inhibition of LOX IMVI melanoma tumor cell line; assay type: functional, cell-based; settings: Homo sapiens
# ACHN = test: Compound was tested for the growth inhibition of ACHN renal tumor cell line; assay type: functional, cell-based; settings: Homo sapiens
# [4] = The ability to inhibit [3H]- uracil incorporation by Toxoplasma gondii in cultures of HEL cells was tested; assay type: functional, cell-based, Homo sapiens
# IGROV-1 = test: Compound was tested for the growth inhibition of IGROV1 ovarian tumor cell line; assay type: functional, cell-based; settings: Homo sapiens
# SF-268 = test: Compound was tested for the growth inhibition of SF-268 CNS tumor cell line; assay type: functional, cell-based; settings: Homo sapiens
# SF-295 = test: Compound was tested for the growth inhibition of SF-295 CNS tumor cell line; assay type: functional, cell-based; settings: Homo sapiens
# SK-MEL-5 = test: Compound was tested for the growth inhibition of SK-MEL-5 melanoma tumor cell line; assay type: functional, cell-based; settings: Homo sapiens
# [5] = Ratio of the inhibitory concentrations against [3H]-uracil incorporation into nuclear DNA and Toxoplasma gondii (Tg) DHFR; IC50 ([3H]uracil incorporation)/IC50 (Tg); assay type: functional
smiles,measurement,setting,value
Nc1nc(N)c2c(n1)CCC(Cc1cccs1)C2 (stereo not given),IC50,Dihydrofolate reductase [1],210 nM
same,IC50,[2],62 nM
same,IC50,Dihydrofolate reductase [3],80 nM
Nc1nc(N)c2c(n1)CCC(CC1CCCO1)C2 (stereo not given),IC50,Dihydrofolate reductase [1],880 nM
same,IC50,[2],40 nM
same,IC50,Dihydrofolate reductase [3],270 nM
Cc1ccccc1CC1CCc2nc(N)nc(N)c2C1 (stereo not given),IC50,Dihydrofolate reductase [1],250 nM
same,IC50,[2],23 nM
same,IC50,Dihydrofolate reductase [3],110 nM
Cc1cccc(CC2CCc3nc(N)nc(N)c3C2)c1 (stereo not given),IC50,Dihydrofolate reductase [1],340 nM
same,IC50,[2],36 nM
same,IC50,Dihydrofolate reductase [3],110 nM
COc1ccc(OC)c(CN2CCc3nc(N)nc(N)c3C2)c1,IC50,Dihydrofolate reductase [1],3300 nM
same,IC50,[2],300 nM
same,IC50,Dihydrofolate reductase [3],1400 nM
COc1ccc(OC)c(CC2CCc3nc(N)nc(N)c3C2)c1 (stereo not given),IC50,786-0,60 nM
same,IC50,A498,10000 nM
same,IC50,A549,< 10 nM
same,IC50,BT-549,330 nM
same,IC50,COLO 205,10000 nM
same,IC50,EKVX,16000 nM
same,IC50,HCT-116,< 10 nM
same,IC50,KM12,2700 nM
same,IC50,NCI-H460,< 10 nM
same,IC50,NCI-H226,31000 nM
same,IC50,OVCAR-3,15000 nM
same,IC50,OVCAR-8,21000 nM
same,IC50,PC-3,35 nM
same,IC50,SW-620,320 nM
same,IC50,SN12C,15000 nM
same,IC50,SF-539,430 nM
same,IC50,T47D,20000 nM
same,IC50,UACC-257,8400 nM
same,IC50,MDA-N,< 10 nM
same,IC50,LOX IMVI,60 nM
same,IC50,Dihydrofolate reductase [1],57 nM
same,IC50,[2],21 nM
same,IC50,Dihydrofolate reductase [3],34 nM
COc1cccc(CC2CCc3nc(N)nc(N)c3C2)c1 (stereo not given),IC50,Dihydrofolate reductase [1],270 nM
same,IC50,[2],21 nM
same,IC50,Dihydrofolate reductase [3],110 nM
CCC1CCc2nc(N)nc(N)c2C1 (stereo not given),IC50,Dihydrofolate reductase [1],6900 nM
same,IC50,[2],1100 nM
same,IC50,Dihydrofolate reductase [3],3000 nM
COc1ccccc1CC1CCc2nc(N)nc(N)c2C1 (stereo not given),IC50,Dihydrofolate reductase [1],450 nM
same,IC50,[2],14 nM
same,IC50,Dihydrofolate reductase [3],120 nM
CC(C)(C)C1CCc2nc(N)nc(N)c2C1 (stereo not given),IC50,Dihydrofolate reductase [1],180 nM
same,IC50,[2],18 nM
same,IC50,Dihydrofolate reductase [3],65 nM
COc1cc(CC2CCc3nc(N)nc(N)c3C2)cc(OC)c1OC (stereo not given),IC50,786-0,60 nM
same,IC50,A498,21000 nM
same,IC50,ACHN,270 nM
same,IC50,A549,780 nM
same,IC50,BT-549,11000 nM
same,IC50,COLO 205,1600 nM
same,IC50,EKVX,710 nM
same,IC50,HCT-116,50 nM
same,IC50,[4],210 nM
same,IC50,IGROV-1,190 nM
same,IC50,KM12,1300 nM
same,IC50,NCI-H460,60 nM
same,IC50,OVCAR-3,9800 nM
same,IC50,PC-3,190 nM
same,IC50,SF-268,190 nM
same,IC50,SF-295,250 nM
same,IC50,SN12C,36000 nM
same,IC50,SF-539,1000 nM
same,IC50,SK-MEL-5,80 nM
same,IC50,T47D,22000 nM
same,IC50,UACC-257,27000 nM
same,Ratio,[5],8.8
same,IC50,LOX IMVI,80 nM
same,IC50,Dihydrofolate reductase [1],91 nM
same,IC50,[2],24 nM
same,IC50,Dihydrofolate reductase [3],38 nM
Nc1nc(N)c2c(n1)CCC(Cc1cccc(OC(F)(F)F)c1)C2 (stereo not given),IC50,[4],130 nM
same,Ratio,[5],9.3
same,IC50,Dihydrofolate reductase [1],100 nM
same,IC50,[2],14 nM
same,IC50,Dihydrofolate reductase [3],79 nM
Nc1nc(N)c2c(n1)CCC(Cc1cccc(C(F)(F)F)c1)C2 (stereo not given),IC50,Dihydrofolate reductase [1],400 nM
same,IC50,[2],140 nM
same,IC50,Dihydrofolate reductase [3],190 nM
COc1ccc(CC2CCc3nc(N)nc(N)c3C2)cc1OC (stereo not given),IC50,786-0,60 nM
same,IC50,A498,24000 nM
same,IC50,ACHN,240 nM
same,IC50,A549,60 nM
same,IC50,BT-549,270 nM
same,IC50,COLO 205,3800 nM
same,IC50,EKVX,5700 nM
same,IC50,HCT-116,40 nM
same,IC50,[4],81 nM
same,IC50,IGROV-1,130 nM
same,IC50,KM12,1300 nM
same,IC50,NCI-H460,40 nM
same,IC50,NCI-H226,12000 nM
same,IC50,OVCAR-8,21000 nM
same,IC50,PC-3,72 nM
same,IC50,SF-268,300 nM
same,IC50,SW-620,990 nM
same,IC50,SF-295,250 nM
same,IC50,SN12C,23000 nM
same,IC50,T47D,19000 nM
same,IC50,UACC-257,15000 nM
same,Ratio,[5],3.5
same,IC50,MDA-N,51 nM
same,IC50,LOX IMVI,70 nM
same,IC50,Dihydrofolate reductase [1],100 nM
same,IC50,[2],23 nM
same,IC50,Dihydrofolate reductase [3],63 nM
Nc1nc(N)c2c(n1)CCC(Cc1ccc(OC(F)(F)F)cc1)C2 (stereo not given),IC50,Dihydrofolate reductase [1],580 nM
same,IC50,[2],73 nM
same,IC50,Dihydrofolate reductase [3],170 nM
Nc1nc(N)c2c(n1)CCC(c1ccccc1)C2 (stereo not given),IC50,Dihydrofolate reductase [1],2200 nM
same,IC50,[2],1300 nM
same,IC50,Dihydrofolate reductase [3],1900 nM
Nc1nc(N)c2c(n1)CCC(Cc1ccccc1)C2 (stereo not given),IC50,[4],250 nM
same,Ratio,[5],7.8
same,IC50,Dihydrofolate reductase [1],290 nM
same,IC50,[2],32 nM
same,IC50,Dihydrofolate reductase [3],180 nM
Nc1nc(N)c2c(n1)CCC(Cc1ccc(Cl)c(Cl)c1)C2 (stereo not given),IC50,Dihydrofolate reductase [1],15000 nM
same,IC50,[2],2600 nM
same,IC50,Dihydrofolate reductase [3],7300 nM
COc1ccc(CC2CCc3nc(N)nc(N)c3C2)cc1 (stereo not given),IC50,Dihydrofolate reductase [1],440 nM
same,IC50,[2],50 nM
same,IC50,Dihydrofolate reductase [3],77 nM
COc1cc(CN2CCc3nc(N)nc(N)c3C2)cc(OC)c1OC,IC50,Dihydrofolate reductase [1],6900 nM
same,IC50,[2],200 nM
same,IC50,Dihydrofolate reductase [3],2200 nM
CCc1nc(N)nc(N)c1-c1ccc(Cl)cc1 [PYRIMETHAMINE],IC50,[4],670 nM
Nc1nc(N)c2c(n1)CCC(Cc1ccsc1)C2 (stereo not given),IC50,Dihydrofolate reductase [1],1700 nM
same,IC50,[2],49 nM
same,IC50,Dihydrofolate reductase [3],130 nM

# From ChEMBL document CHEMBL1132605 (J Med Chem, 1999)
